In patent US11427548B2 (Arvinas Operations, Inc., priority 2015, dated 2022):
Like-named read-outs stand apart in the source and are kept apart here. Values belong to the compound of their own block, whether it stands above or below them.

Molecular target: T1, Androgen Receptor (Homo sapiens, UniProt P10275)
T1 construct: endogenous in cells; host or cells: VCaP cells
T1 sequence (P10275 1-920): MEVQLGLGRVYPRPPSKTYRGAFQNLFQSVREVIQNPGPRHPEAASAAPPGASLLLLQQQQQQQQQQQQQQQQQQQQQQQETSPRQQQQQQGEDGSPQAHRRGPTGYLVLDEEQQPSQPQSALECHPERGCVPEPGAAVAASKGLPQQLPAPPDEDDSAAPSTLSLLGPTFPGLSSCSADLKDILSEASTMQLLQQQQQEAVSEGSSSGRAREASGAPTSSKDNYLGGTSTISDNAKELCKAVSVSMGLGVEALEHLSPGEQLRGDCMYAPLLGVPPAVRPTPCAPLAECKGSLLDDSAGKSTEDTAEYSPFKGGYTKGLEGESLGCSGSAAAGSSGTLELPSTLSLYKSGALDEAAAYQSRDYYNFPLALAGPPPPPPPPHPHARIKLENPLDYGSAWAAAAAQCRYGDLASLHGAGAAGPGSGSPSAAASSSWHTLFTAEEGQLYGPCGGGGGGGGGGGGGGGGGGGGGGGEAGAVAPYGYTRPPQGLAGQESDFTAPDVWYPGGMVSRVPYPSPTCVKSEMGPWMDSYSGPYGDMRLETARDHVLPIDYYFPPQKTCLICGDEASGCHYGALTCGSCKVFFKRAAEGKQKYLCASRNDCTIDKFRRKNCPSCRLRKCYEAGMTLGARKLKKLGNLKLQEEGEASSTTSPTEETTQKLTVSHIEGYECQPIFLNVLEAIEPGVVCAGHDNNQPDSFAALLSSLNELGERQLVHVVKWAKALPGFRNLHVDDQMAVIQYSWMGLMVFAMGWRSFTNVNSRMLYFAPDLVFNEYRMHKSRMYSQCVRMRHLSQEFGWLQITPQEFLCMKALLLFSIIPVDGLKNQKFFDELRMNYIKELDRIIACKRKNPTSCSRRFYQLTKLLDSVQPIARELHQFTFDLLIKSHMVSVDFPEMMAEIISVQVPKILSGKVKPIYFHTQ
Assay: Androgen Receptor ELISA assay (PathScan AR ELISA) in VCaP cells: AR degradation, Dmax and DC50
Type: cell-based
Method in brief: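 VCaP cells in phenol red-free RPMI with 5% charcoal-stripped FBS were grown at least 3 days, then given compound as 7 half-log doses in 0.1% DMSO with 0.1 nM R1881 for 24 h. Lysates went into a sandwich AR ELISA with TMB read at 450 nm.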

[1] = VCaP cells; Table 36; read-out: VCaP DC50
[2] = VCaP, VCaP cells; Table 36; read-out: VCaP Dmax (%)
[3] = VCaP cells; Table 35; read-out: VCaP DC50
[4] = VCaP, VCaP cells; Table 35; read-out: VCaP Dmax (%)
[5] = VCaP, read-out: VCaP Dmax (%), VCaP cells; Table 36

DC50 [1]: < 50 nM
Dmax [2]: 26 to 50%
SMILES: Cc1ncsc1-c1ccc([C@H](C)NC(=O)[C@@H]2C[C@@H](O)CN2C(=O)[C@@H](NC(=O)COC2CN(CCNc3ccc(C(=O)N[C@H]4C(C)(C)[C@H](Oc5ccc(C#N)c(Cl)c5)C4(C)C)cn3)C2)C(C)(C)C)cc1 [Example 842, N-((1r,3r)-3-(3-chloro-4-cyanophenoxy)-2,2,4,4-tetramethylcyclobutyl)-6-((2-(3-(2-(((S)-1-((2S,4R)-4-hydroxy-2-(((S)-1-(4-(4-methylthiazol-5-yl)phenyl)ethyl)carbamoyl)pyrrolidin-1-yl)-3,3-dimethyl-1-oxobutan-2-yl)amino)-2-oxoethoxy)azetidin-1-yl)ethyl)amino) nicotinamide]

DC50 [1]: < 50 nM
Dmax [5]: > 71%
SMILES: Cc1ncsc1-c1ccc([C@H](CO)NC(=O)[C@@H]2C[C@@H](O)CN2C(=O)[C@@H](NC(=O)COCCN2[C@H](C)CN(c3ccc(C(=O)N[C@H]4C(C)(C)[C@H](Oc5ccc(C#N)c(Cl)c5)C4(C)C)cn3)C[C@@H]2C)C(C)(C)C)cc1 [Example 826, N-((1r,3R)-3-(3-chloro-4-cyanophenoxy)-2,2,4,4-tetramethylcyclobutyl)-6-((3S,5R)-4-(2-(2-(((S)-1-((2S,4R)-4-hydroxy-2-(((R)-2-hydroxy-1-(4-(4-methylthiazol-5-yl)phenyl)ethyl)carbamoyl)pyrrolidin-1-yl)-3,3-dimethyl-1-oxobutan-2-yl)amino)-2-oxoethoxy)ethyl)-3,5-dimethylpiperazin-1-yl)nicotinamide]

DC50 [1]: > 501 nM
Dmax [5]: < 25%
SMILES: Cc1ncsc1-c1ccc([C@H](C)NC(=O)[C@@H]2C[C@@H](F)CN2C(=O)[C@@H](NC(=O)COCCN2CCN(c3ccc(C(=O)N[C@H]4C(C)(C)[C@H](Oc5ccc(C#N)c(Cl)c5)C4(C)C)cn3)CC2)C(C)(C)C)cc1 [Example 720, N-((1r,3r)-3-(3-chloro-4-cyanophenoxy)-2,2,4,4-tetramethylcyclobutyl)-6-(4-(2-(2-(((S)-1-((2S,4R)-4-fluoro-2-(((S)-1-(4-(4-methylthiazol-5-yl)phenyl)ethyl)carbam-oyl)pyrrolidin-1-yl)-3,3-dimethyl-1-oxobutan-2-yl)amino)-2-oxoethoxy)ethyl)pipera-zin-1-yl)nicotinamide]

DC50 [1]: > 501 nM
Dmax [2]: < 25%
SMILES: CC(C)[C@H](C(=O)N1C[C@H](O)C[C@H]1C(=O)NCc1ccc(C#N)cc1)N1Cc2ccc(N3CCN(CCCc4ccc(C(=O)N[C@H]5C(C)(C)[C@H](Oc6ccc(C#N)c(C(F)(F)F)c6)C5(C)C)cc4)CC3)cc2C1=O [Example 771, (2S,4R)-1-((R)-2-(6-(4-(3-(4-(((1r,3r)-3-(4-cyano-3-(trifluoromethyl)phenoxy)-2,2,4,4-tetramethylcyclobutyl)carbamoyl)phenyl)propyl)piperazin-1-yl)-1-oxoisoindolin-2-yl)-3-methylbutanoyl)-N-(4-cyanobenzyl)-4-hydroxypyrrolidine-2-carboxamide]

DC50 [1]: > 501 nM
Dmax [2]: 26 to 50%
SMILES: Cc1nc(O[C@H]2C(C)(C)[C@H](NC(=O)c3ccc(N4CCN(CCCN5CCN(CC(=O)O[C@H](C(=O)N6C[C@H](O)C[C@H]6C(=O)N[C@@H](C)c6ccc(-c7scnc7C)cc6)C(C)(C)C)CC5)CC4)nc3)C2(C)C)ccc1C#N [Example 716, N-((1r,3r)-3-((5-cyano-6-methylpyridin-2-yl)oxy)-2,2,4,4-tetramethylcyclobutyl)-6-(4-(3-(4-(2-(((S)-1-((2S,4R)-4-hydroxy-2-(((S)-1-(4-(4-methylthiazol-5-yl)phenyl)ethyl)carbam-oyl)pyrrolidin-1-yl)-3,3-dimethyl-1-oxobutan-2-yl)amino)-2-oxoethyl)piperazin-1-yl)propyl)piperazin-1-yl)nicotinamdie]

Second part, the compound before the results:

SMILES: CC(=O)O[C@@H]1C[C@@H](C(=O)N[C@@H](C)c2ccc(-c3scnc3C)cc2)N(C(=O)[C@H](C(C)C)N2Cc3cc(OCCN4CCN(c5ccc(C(=O)N[C@H]6C(C)(C)[C@H](Oc7ccc(C#N)c(Cl)c7)C6(C)C)cn5)CC4)ccc3C2=O)C1 [Example 852, (3R,5S)-1-((S)-2-(5-(2-(4-(5-(((1r,3r)-3-(3-chloro-4-cyanophenoxy)-2,2,4,4-tetramethylcyclobutyl)carbamoyl)pyridin-2-yl)piperazin-1-yl)ethoxy)-1-oxoisoindolin-2-yl)-3-methylbutanoyl)-5-(((S)-1-(4-(4-methylthiazol-5-yl)phenyl)ethyl)carbamoyl)pyrrolidin-3-yl acetate]
DC50 [1]: < 50 nM
Dmax (VCaP, read-out: VCaP Dmax (%)): 51 to 70%

SMILES: Cc1ncoc1-c1ccc([C@H](C)NC(=O)[C@@H]2C[C@@H](O)CN2C(=O)[C@@H](NC(=O)COCCCCOc2ccc(C(=O)N[C@H]3C(C)(C)[C@H](Oc4ccc(C#N)c(Cl)c4)C3(C)C)cc2)C(C)(C)C)cc1 [Example 168, (2S,4R)-1-[(2S)-3,3-dimethyl-2-{2-[4-(4-{[trans-3-(3-chloro-4-cyanophenoxy)-2,2,4,4-tetramethylcyclobutyl]carbamoyl}phenoxy)butoxy]acetamido}butanoyl]-4-hydroxy-N-[(1S)-1-[4-(4-methyl-1,3-oxazol-5-yl)phenyl]ethyl]pyrrolidine-2-carboxamide]
Dmax (VCaP, highest percentage of Androgen Receptor degradation observed, VCaP cells (Table 32); read-out: VCaP Dmax (%)): > 71%
DC50 (concentration that caused 50% Androgen Receptor degradation, VCaP cells (Table 32); read-out: VCaP DC50): < 50 nM

SMILES: Cc1nccn1-c1ccc([C@H](C)NC(=O)[C@@H]2C[C@@H](O)CN2C(=O)[C@@H](NC(=O)COCCOc2ccc(-c3ccc(C(=O)N[C@H]4C(C)(C)[C@H](Oc5ccc(C#N)c(Cl)c5)C4(C)C)cc3)cc2)C(C)(C)C)cc1 [Example 449]
DC50 [3]: < 50 nM
Dmax [4]: > 71%

SMILES: CC(C)(C)[C@H](NC(=O)COCCCCCNc1ccc(C(=O)N[C@H]2C(C)(C)[C@H](Oc3ccc(C#N)c(Cl)c3)C2(C)C)cc1)C(=O)N1C[C@H](O)C[C@H]1C(=O)NCc1ccc(Cl)cc1 [Example 552]
DC50 [3]: < 50 nM
Dmax [4]: 51 to 70%

SMILES: Cc1ncsc1-c1ccc(CNC(=O)[C@@H]2C[C@@H](O)CN2C(=O)[C@@H](NC(=O)COC[C@@H](O)[C@H](O)COc2ccc(-c3ccc(N4C(=S)N(c5ccc(C#N)c(C(F)(F)F)c5)C(=O)C4(C)C)cc3)cc2)C(C)(C)C)cc1 [Example 566]
Dmax (VCaP, read-out: VCaP Dmax (%)): 51 to 70%
DC50 (read-out: VCaP DC50; VCaP cells; Table 35): < 50 nM

SMILES: Cc1ncsc1-c1ccc(CNC(=O)[C@@H]2C[C@@H](O)CN2C(=O)[C@@H](NC(=O)COc2ccccc2CCCOc2ccc(C(=O)N[C@H]3C(C)(C)[C@H](Oc4ccc(C#N)c(Cl)c4)C3(C)C)cc2)C(C)(C)C)cc1 [Example 417]
DC50 (VCaP cells; Table 34; read-out: VCaP DC50): < 50 nM
Dmax (VCaP, VCaP cells; Table 34; read-out: VCaP Dmax (%)): > 71%

SMILES: Cc1ncsc1-c1ccc([C@H](C)NC(=O)[C@@H]2C[C@@H](O)CN2C(=O)C(C(C)C)n2cnc(CCCCOCCCCCOc3ccc(N4C(=S)N(c5ccc(C#N)c(C(F)(F)F)c5)C(=O)C4(C)C)cc3)c2)cc1 (stereo partly shown) [Example 650, 1-(2-(4-(4-((5-(4-(3-(4-cyano-3-(trifluoromethyl)phenyl)-5,5-dimethyl-4-oxo-2-thioxoimidazolidin-1-yl)phenoxy)pentyl)oxy)butyl)-1H-imidazol-1-yl)-3-methylbutanoyl)-4-hydroxy-N-(1-(4-(4-methylthiazol-5-yl)phenyl)ethyl)pyrroli-dine-2-carboxamide]
Dmax (VCaP, read-out: VCaP Dmax (%)): < 25%
DC50 (read-out: VCaP DC50; VCaP cells; Table 36): > 501 nM

SMILES: CC(C)(C)[C@H](NC(=O)COCCCCCNc1ccc(C(=O)N[C@H]2C(C)(C)[C@H](Oc3ccc(C#N)c(Cl)c3)C2(C)C)cc1)C(=O)N1C[C@H](O)C[C@H]1C(=O)NCc1ccc(-n2ccnn2)cc1 [Example 526]
DC50 [3]: < 50 nM
Dmax [4]: 51 to 70%

SMILES: Cc1ncsc1-c1ccc(C(C)NC(=O)[C@@H]2C[C@@H](OCOC(=O)OC(C)C)CN2C(=O)[C@@H](NC(=O)COCCCCCNc2ccc(C(=O)N[C@H]3C(C)(C)[C@H](Oc4ccc(C#N)c(Cl)c4)C3(C)C)cc2)C(C)(C)C)cc1 (stereo partly drawn) [Example 653, (((3R,5S)-1-((S)-2-(2-((5-((4-(((1r,3r)-3-(3-chloro-4-cyanophenoxy)-2,2,4,4-tetramethylcyclobutyl)carbamoyl)phenyl)amino)pentyl)oxy)acetamido)-3,3-dimethylbutanoyl)-5-(((S)-1-(4-(4-methylthiazol-5-yl)phenyl)ethyl)carbam-oyl)pyrrolidin-3-yl)oxy)methyl isopropyl carbonate]
DC50 [1]: < 50 nM
Dmax [2]: 51 to 70%
